Test results published in the NIST ThermoML archive (doi:10.1021/acs.jced.6b00703).
Numbers after ± are expanded uncertainties.

Details: 101 kPa, Liquid, Drop weight

Structure (SMILES) | interfacial tension (289.15 K) | interfacial tension (303.15 K) | interfacial tension (313.15 K) | interfacial tension (323.15 K) | interfacial tension (333.15 K) | interfacial tension (292.15 K) | interfacial tension (283.15 K) | interfacial tension (290.15 K) | interfacial tension (293.15 K)
CCC(C)=O [butanone] + O | – | – | – | – | – | 0.92 ± 1 mN/m | – | – | –
CCCCOC(C)=O [butyl ethanoate] + O | 14.9 ± 1 mN/m | 15.2 ± 1 mN/m | 15.1 ± 1 mN/m | 14.3 ± 1 mN/m | – | – | 15.3 ± 1 mN/m | 14.95 ± 1 mN/m | 15.3 ± 1 mN/m
CCOCC [diethyl ether] + O | – | – | – | – | – | – | – | – | 9.03 ± 1 mN/m
CC1CCCCC1 [methylcyclohexane] + O | – | – | – | – | – | – | – | – | 51.4 ± 1.1 mN/m
Cc1ccccc1 [toluene] + O | – | 36 ± 1.1 mN/m | 35.3 ± 1.1 mN/m | 34 ± 1 mN/m | – | – | 36.1 ± 1.1 mN/m | 35.8 ± 1.1 mN/m | 36.3 ± 1.1 mN/m

The next lines start with results.

interfacial tension (289.15 K) | interfacial tension (303.15 K) | interfacial tension (313.15 K) | interfacial tension (323.15 K) | interfacial tension (333.15 K) | Structure (SMILES) | interfacial tension (292.15 K) | interfacial tension (283.15 K) | interfacial tension (290.15 K) | interfacial tension (293.15 K)
– | 4.17 ± 1 mN/m | 4.15 ± 1 mN/m | 3.97 ± 1 mN/m | 3.95 ± 1 mN/m | OC1CCCCC1 [cyclohexanol] + O | – | – | – | –
4.43 ± 1 mN/m | 5.08 ± 1 mN/m | 5.05 ± 1 mN/m | 4.71 ± 1 mN/m | – | O=C1CCCCC1 [cyclohexanone] + O | – | 4.78 ± 1 mN/m | – | 4.87 ± 1 mN/m
7.37 ± 1 mN/m | 7.19 ± 1 mN/m | 7.15 ± 1 mN/m | 6.99 ± 1 mN/m | – | CCOC(C)=O [ethyl acetate] + O | – | 7.61 ± 1 mN/m | – | 7.29 ± 1 mN/m
9.1 ± 1 mN/m | – | – | – | – | CCCCCCCCO [octan-1-ol] + O | – | – | – | –
